From patent publication US4575560A, “Insecticidal diaminoguanidine hydrazone compounds” (American Cyanamid Company, priority 1985, dated 1986)

Key:
Southern Armyworm = assay: Southern armyworm test, third-instar larvae on treated Sieva lima bean leaves; format: in vivo, Spodoptera eridania (Cramer); conditions: third-instar larvae
Description: Test formulations and procedures used for evaluation are as follows:
A. 100 mg of the test material is weighed, placed in a funnel over a 113 g narrow-mouth bottle, rinsed into the bottle with a 35 mL scoop of acetone, followed by a 35 mL scoop of water and another 35 mL scoop of acetone to yield 1000 ppm in 65% acetone. If the material is not soluble, it is broken up with a glass rod and used as a suspension.
B. This stock solution ("A") is used to make 300 ppm solutions or suspensions by pipetting 30 mL of "A" into a bottle containing 70 mL of 50% acetone to yield 300 ppm. Further dilutions in 50% acetone are made as required.
C. Tests requiring 10 ppm acetone solutions: 1 mL of "A" is pipetted into 99 mL of acetone to yield 10 ppm. Additional dilutions are made using 50% acetone as required.
Southern Armyworm--Spodoptera eridania (Cramer)
A Sieva lima bean plant with just the primary leaves expanded to 1.91 cm is dipped for three seconds with agitation in the "A" solution of 1000 ppm and set in the hood to dry. Following this, one leaf is placed in a 9 cm petri dish which has a moist filter paper in the bottom and 10 third-instar armyworm larvae about 1 cm long. This dish is covered and held at 80° F., and 50% r.h. After two days, mortality counts and estimates of the amount of feeding are made. Compounds showing partial kill and/or inhibition of feeding are held for an extra day for further observations.
All compounds showing activity as defined above are retested, using the second leaf on the bean plant, after an interval of seven days from original treatment, as an assay of residual activity.

[1] = system: Tobacco Budworm 3rd Instar; assay: Tobacco budworm secondary test, third-instar larvae on treated cotton cotyledons; format: in vivo, Heliothis virescens (Fabricus)

Row | Compound | Mortality Rating Southern Armyworm (Southern Armyworm; 100 ppm) | Mortality Rating Southern Armyworm (Southern Armyworm; 1000 ppm) | Mortality Rating Tobacco Budworm 3rd Instar ([1]; 1000 ppm) | reduced feeding (R) Tobacco Budworm 3rd Instar ([1]; 1000 ppm) | Mortality Rating Southern Armyworm (Southern Armyworm; 10 ppm) | Mortality Rating Tobacco Budworm 3rd Instar ([1]; 10 ppm) | Mortality Rating Tobacco Budworm 3rd Instar ([1]; 100 ppm) | reduced feeding (R) Tobacco Budworm 3rd Instar ([1]; 10 ppm) | reduced feeding (R) Tobacco Budworm 3rd Instar ([1]; 100 ppm)
1 | CCOC(=O)N(N=Cc1ccc(SC(F)F)cc1)C(=N)NN=Cc1ccc(SC(F)F)cc1 [HCF2 S / HCF2 s / C2 H5] | 0 (No effect) | 9 (100%) | 0 (No effect) | R |  |  |  |  | 
2 | CCN(CC)C(=O)N(N=Cc1ccc(OC(F)(F)C(F)F)cc1)C(=N)NN=Cc1ccc(OC(F)(F)C(F)F)cc1 [HCF2 CF2 O / HCF2 CF2 O / C2 H5 / C2 H5] | 9 (100%) | 9 (100%) | 5 (56-65%) |  | 1 (11-25%) | 0 (No effect) | 0 (No effect) |  | 
3 | N=C(NN=Cc1ccc(SC(F)F)cc1)N(N=Cc1ccc(SC(F)F)cc1)C(=O)OCCCl [HCF2 S / HCF2 S / ClCH2 CH2] | 0 (No effect) | 9 (100%) | 0 (No effect) | R |  |  |  |  | 
4 | N=C(NN=Cc1ccc(Cl)cc1)NN=Cc1ccc(OC(F)(F)C(F)F)cc1 [Cl / HCF2 CF2 O / B] | 9 (100%) | 9 (100%) | 0 (No effect) | R | 0 (No effect) |  | 0 (No effect) |  | 
5 | N=C(NN=Cc1ccc(OC(F)(F)F)cc1)N(N=Cc1ccc(OC(F)(F)F)cc1)C(=O)OCCCl [CF3 O / CF3 O / ClCH2 CH2] | 9 (100%) | 9 (100%) | 8 (86-99%) | R | 5 (56-65%) | 0 (No effect) | 0 (No effect) | R | R
6 | N=C(NN=Cc1ccc(OCC(F)(F)F)cc1)NN=Cc1ccc(OCC(F)(F)F)cc1 [CF3 CH2 / S] | 8 (86-99%) | 9 (100%) | 0 (No effect) | R | 6 (66-75%) |  | 0 (No effect) |  | 
7 | N=C(NN=Cc1ccc2c(c1)OC(F)C(F)(F)O2)NN=Cc1ccc2c(c1)OC(F)C(F)(F)O2 (stereo not drawn) [drawing 48 / S] | 0 (No effect) | 9 (100%) | 0 (No effect) | R |  |  |  |  | 
8 | N=C(NN=Cc1ccc(OC(F)(F)F)cc1)NN=Cc1ccc(OC(F)(F)F)cc1 [CF3 O / B] | 9 (100%) | 9 (100%) | 7 (76-85%) |  | 4 (46-55%) |  |  |  | 
9 | CCC(C)OC(=O)N(N=Cc1ccc(OC(F)(F)F)cc1)C(=N)NN=Cc1ccc(OC(F)(F)F)cc1 (stereo not drawn) [CF3 O / CF3 O / drawing 55] | 9 (100%) | 9 (100%) | 8 (86-99%) |  | 0 (No effect) |  | 0 (No effect) |  | R
10 | CC(C)OC(=O)N(N=Cc1ccc(OC(F)(F)C(F)F)cc1)C(=N)NN=Cc1ccc(OC(F)(F)C(F)F)cc1 [HCF2 CF2 O / HCF2 CF2 O / -i-C3 H7] | 9 (100%) | 9 (100%) | 5 (56-65%) |  | 0 (No effect) |  | 0 (No effect) |  | 
11 | N=C(NN=Cc1ccc(Br)cc1)NN=Cc1ccc(C(F)(F)F)cc1 [CF3 / Br / S] |  | 9 (100%) | 0 (No effect) | R | 0 (No effect) |  | 0 (No effect) |  | R
12 | N=C(NN=Cc1ccc(Cl)cc1)NN=Cc1ccc(Cl)cc1 [Cl / HNO3] | 0 (No effect) | 9 (100%) | 0 (No effect) |  |  |  |  |  | 
13 | N=C(NN=Cc1ccc(OC(F)(F)C(F)F)cc1)NN=Cc1ccc(C(F)(F)F)cc1 [CF3 / HCF2 CF2 O / B, 1-{[p-(1,1,2,2-tetrafluoroethoxy)benzylidene]amino}-3-{[p-(trifluoromethyl)benzylidene]amino}guanidine] | 9 (100%) | 9 (100%) | 3 (36-45%) |  |  |  |  |  | 
14 | N=C(NN=Cc1ccc(OC(F)(F)C(Cl)Cl)cc1)NN=Cc1ccc(OC(F)(F)C(Cl)Cl)cc1 [HCCL2 CF2 O / S] | 9 (100%) | 9 (100%) | 5 (56-65%) |  | 7 (76-85%) |  | 0 (No effect) |  | R
15 | N=C(NN=Cc1ccc(SC(F)F)cc1)NN=Cc1ccc(SC(F)F)cc1 [HCF2 S / B] | 9 (100%) | 8 (86-99%) | 0 (No effect) | R |  | 0 (No effect) | 0 (No effect) |  | R
16 | CCCOC(=O)N(N=Cc1ccc(C(F)(F)F)cc1)C(=N)NN=Cc1ccc(C(F)(F)F)cc1 [CF3 / CF3 / -n-C3 H7] | 9 (100%) | 9 (100%) | 0 (No effect) |  | 4 (46-55%) |  |  |  | 
17 | N=C(NN=Cc1ccc(SC(F)(F)C(F)F)cc1)NN=Cc1ccc(SC(F)(F)C(F)F)cc1 [HCF2 CF2 S / S] |  |  |  |  | 6 (66-75%) |  |  |  | 
18 | CCOC(=O)N(N=Cc1ccc(Cl)cc1)C(=N)NN=Cc1ccc(Cl)cc1 [Cl / Cl / C2 H5] | 9 (100%) | 8 (86-99%) |  |  |  |  |  |  | 
19 | COC(=O)N(N=Cc1ccc(OC(F)(F)C(F)F)cc1)C(=N)NN=Cc1ccc(OC(F)(F)C(F)F)cc1 [HCF2 CF2 O / HCF2 CF2 O / CH3] | 9 (100%) | 9 (100%) |  |  |  |  |  |  | 
20 | N=C(NN=Cc1ccc(Cl)cc1)NN=Cc1ccc(OC(F)(F)C(F)F)cc1 [Cl / HCF2 CF2 O / S] |  |  | 0 (No effect) | R |  |  |  |  | 
21 | CCOC(=O)N(N=Cc1ccc(C(F)(F)F)cc1)C(=N)NN=Cc1ccc(C(F)(F)F)cc1 [CF3 / CF3 / C2 H5, 3-[p-(trifluoromethyl)benzylidene]-2-{{[p-(trifluoromethyl)benzylidene]amino}amidino}carbazate] | 7 (76-85%) | 9 (100%) |  |  | 9 (100%) |  |  |  | 
